The values that follow come from patent US10399958B2, “PPAR agonists, compounds, pharmaceutical compositions, and methods of use thereof” (Mitobridge, Inc., priority 2015, dated 2019).

Read-outs that look alike come from different tables or passages of the source.

Series [1] concerns DMD human skeletal muscle cells. The series can be described thus: Mitochondrial biogenesis (BrdU labeling). The conditions noted are these: DMD patient cells, treated from day 4 of differentiation, FIG. 2. It is filed as cell-based. As for the experimental part:
DMD human skeletal muscle cells were plated into 96 well plates. Media was changed to Differentiation Medium and cells were allowed to differentiate for 7 days. […] Three days later cells were labeled with bromodeoxyuridine (BrdU) in culture media for 2 hours. Following the incubation, cells were washed, and then incubated with anti-BrdU antibody overnight at 4° C. The next day, samples were washed incubated with anti-mouse IgG HRP for 45 min at 37° C., and then washed. Optical density was measured at 450 nm wavelength on a SpectraMax M5 (Molecular Devices).
Data was analyzed in Graph Pad Prism. Normality of distribution was determined by D'Agostino-Pearson omnibus normality test. If the samples were normally distributed, they were analyzed by One-Way ANOVA followed by a post hoc Dunnett's test vs DMSO control cells or unpaired two tailed T-test. If the samples were not normally distributed, then a Kruskal-Wallis test was used to determine significance.
(In general: Uptake of a labelled nucleoside into DNA is a usual measure of proliferation.)

The nature of series [2]: Pharmacokinetic (PK) screening (i.v.) in male CD1 mice. In kind it is in vivo, mouse. Conditions: male, CD1, mouse, plasma, iv, 1 mg/kg, I.V. 1 mg/kg dose, plasma. As for the experimental part:
In this example, the intravenous PK profile of several PPARδ agonists disclosed herein in male CD1 mice was determined. Similar methods can be used to analyze other compounds provided herein. All compounds were administered separately to CD1 mice at 1 mg/kg (i.v.), except the comparator compound to 2c was administered at 3 mg/kg (i.v.), as noted below.

The next series deals with mdx mouse. As to the kind of experiment: Endurance running assay (treadmill) in mdx mouse model of Duchenne Muscular Dystrophy. It is filed as in vivo. Conditions: mdx mice, 10 or 30 mg per kg PO, 34-35 days, FIG. 3. The text has this:
PPARδ is activated in response to exercise where it will elicit an increase in fatty acid utilization. Duchenne Muscular Dystrophy is a progressive, early-onset degenerative muscle disease with associated muscle function deficits resulting from the loss of the protein dystrophin. Fatty acid metabolism and altered mitochondrial function are reported to be an aspect of the disease.
C57BL/10ScSn-Dmdmdx/J and C57BL/10ScSnJ mice ˜5-7 weeks of age were received and housed singly in polycarbonate cages. Animals were fed standard chow and had access to feed and water at all times ad libitum. […] Vehicle was dosed for control groups. All the animals were dosed by oral gavage (PO) for 34-35 days. The mice were dosed at 8 AM on the last in-life study day with the necropsy started 2 hours after the final dose.
Mice were acclimated to a moving belt treadmill in a series of acclimation runs before evaluation for overall endurance at a set maximal speed. Each mouse was run in a separate lane that contained an electric stimulating grid. The number of visits to the electric stimulating grid and the number of shocks each animal received were recorded by the instrument and a technician evaluated the animal during the run to determine the time and distance to exhaustion. The maximum speed for all the three endurance runs was capped at 20 m/min. […]

In another series the test system is mdx mouse diaphragm. As to the kind of experiment: Diaphragm fibrosis by hydroxyproline assay in mdx mice. It is filed as in vivo. The conditions noted are these: FIG. 10. As for the experimental part: Diaphragm samples were harvested carefully and the central tendon was cut away to ensure hydroxyproline signal was derived from muscle and not collagen-rich tendon. Hydroxyproline assay was performed according to the manufacturers' instructions (Sigma-Aldrich Hydroxyproline Assay Kit). Final values were calculated as follows: […]
(§1) Diaphragm weights, histology scores and immunofluorescence data were tested using a parametric test if normality was confirmed by Shapiro-Wilk normality test (unpaired t-test for 2 groups or One way ANOVA followed by post hoc Dunn's multiple comparison testing versus the mdx vehicle group for 3 groups) and a Mann-Whitney test (2 groups) or Kruskal-Wallis One-Way ANOVA (non-parametric) followed by post hoc Dunn's multiple comparison testing versus the mdx vehicle group (3 groups) if the data were not normally distributed.
Diaphragms were evaluated for fibrosis by measuring hydroxyproline, an amino acid unique to collagen, in digested muscle. Mdx mice were confirmed to have increased fibrosis versus non-dystrophic control mice (FIG. 9).

In another series the test system is mdx mouse muscle. As to the kind of experiment: Histology pathology assessment of muscle in mdx mice. In kind it is in vivo.
Text: Similar to the muscle pathology in Duchenne Muscular Dystrophy, mdx mice have dystrophic pathologies in skeletal muscle that is apparent soon after birth. Key aspects of this phenotype evident by pathology are the loss of myofibers through apoptosis/necrosis, evidence of regenerating muscle fibers, infiltrating immune cells, and increased muscle fibrosis.
Animals and dosing were as previously described. See Example 4.
Quadriceps, gastrocnemius and tibialis anterior muscles were harvested at necropsy, and fixed by immersion in 10% neutral buffered formalin and embedded in paraffin. Tissues were sectioned at […] from each block and slides were evaluated by a board certified veterinary pathologist. Histopathologic evaluation included qualitative and semi-quantitative evaluation for myofiber necrosis, inflammation, myofiber regeneration and interstitial fibrosis, as outlined in Tables 1, 2, and 3, respectively.
as §1

Series [3] deals with mdx mouse quadriceps muscle. The series can be described thus: Immunofluorescent (IgM) assessment of muscle necrosis in mdx mice. It is filed as in vivo. Conditions: IgM immunofluorescence, FIG. 5. As for the experimental part: Precut paraffin section slides were deparaffinized and incubated with AlexaFluor 488 conjugated wheat germ agglutinin followed by an incubation with Alexa 568 conjugated anti-mouse IgM (abcam, Product #ab175702). Slides were washed and mounted with coverslips using ProLong Diamond Antifade Mountant with DAPI. Imaging was performed on a Nikon fluorescent microscope using a 40× objective and composite images were stitched together using NIS Elements Software, V4.4 (Nikon, Tokyo, Japan). Analysis was completed using Image J 1.50b, Java 1.8.0_60 (64 bit).
as §1
Quadriceps muscle sections were labeled fluorescently to detect IgM antibody accumulation within damaged myofibers, an indication of loss of myofiber integrity and active necrosis. Each muscle section was imaged in its entirety and the number and size of necrotic regions was measured. […]

The test system of series [4] is Sprague-Dawley rat acute kidney injury. The series can be described thus: Ischemia-reperfusion kidney injury in rats, plasma creatinine. In kind it is in vivo. The conditions noted are these: 30 mg/kg orally 4 hours after surgery, blood 24 hours after reperfusion, FIG. 11. The procedure: Sprague-Dawley male rats approximately 280-300 g, with ad libitum access to standard feed and water were used in these experiments. Rats were anesthetized with isoflurane and placed ventrally on a temperature controlled heated surgical platform. A skin incision was made on the dorsal surface, exposing both kidneys through flank incisions. Vascular clips were applied to both renal pedicles and occlusion lasted 45 minutes. After 45 min, the clips were removed, kidneys were monitored for successful reperfusion, and surgical sites were sutured. The sham group was subjected to similar surgical procedures, except that the occluding clamps were not applied. Four independent studies, testing each compound were performed. Compounds were formulated as a fresh daily suspension in 0.25% sodium carboxymethyl-cellulose, 0.25% Tween-80 in purified water. Compounds were dosed orally at 30 mg/kg 4 hours after animals awoke from surgery and sham surgery and IRI control animals were similarly dosed with vehicle.
Twenty-four (24) hours after reperfusion, blood was collected in K2 EDTA tubes by retro-orbital bleeding from all groups under mild isoflurane anesthesia. Plasma was separated by centrifugation at 3000 rpm for 10 minutes at 4° C. Plasma creatinine was analyzed using a fully automated clinical biochemistry analyzer (Siemens Dimension® Xpand® Plus Integrated Chemistry System)
Creatinine was tested for normal distribution in all groups via a D'Agostino-Pearson omnibus normality test and a Shapiro-Wilk normality test. Normally distributed data was subjected to an unpaired, two-tailed t test. Non-normally distributed data was subjected to a Mann-Whitney test (non-parametric). Statistical significance is determined by p<0.05 of IRI-vehicle compared to compound treated groups.

For `Cc1cnc(-c2ccc(C(F)(F)F)cc2)n1Cc1ccccc1OCCC[C@@H](C)CC(=O)O` [Compound 2d, (R)-3-methyl-6-(2-((5-methyl-2-(4-(trifluoromethyl)phenyl)-1H-imidazol-1-yl)methyl)phenoxy)hexanoic acid], the Mitochondrial biogenesis entry in series [1] was “increased in a dose-dependent manner”. For the same compound, the clearance in series [2] (read-out: CL) is 25 mL/min/kg; in series [2] (read-out: High or Low CL), under 85 mL/min/kg. Besides, the Treadmill running distance entry in the series on mdx mouse is recorded as “increased distance over mdx vehicle treated group mice”. The “Diaphragm fibrosis (hydroxyproline)” value with mdx mouse diaphragm is on record as “reduced fibrosis”. For the same compound, the “Pathology scored necrosis, quadriceps” value in the series with mdx mouse muscle (10 or 30 mg per kg PO, 34-35 days, FIG. 4) is “Decreased necrosis”. For the same compound, the “Inflammation, quadriceps muscle” value in the series with mdx mouse muscle (FIG. 6) was “Decreased inflammation”. In addition, the Quadriceps muscle regeneration entry in the series with mdx mouse muscle (FIG. 7) is “increases”. For the same compound, the Diaphragm muscle necrosis entry with mdx mouse muscle (FIG. 8) is on record as “reduced diaphragm necrosis”. The “Necrotic region size, quadriceps” value in series [3] was “decreased”. In addition, the Plasma creatinine entry in series [4] was “reduce plasma creatinine”.
